The text below walks through data of DBAASP.

≈ marks a conversion by molar mass, not a printed value.

Test systems include Bacillus megaterium Bm11; Staphylococcus capitis 1; Micrococcus luteus; Saccharomyces cerevisiae.
Holding throughout (assay): ≥ marks a high value that may be exact or a test limit, other limits are often not marked, values filed in µg/mL are converted to µM
Test [1] relates to Candida albicans ATCC 10231.
Test [2] relates to Staphylococcus aureus Cowan 1.
Test [3] has as its system Yersinia pseudotuberculosis YPIII.
In test [4] the test system is Escherichia coli ATCC 25922.
Test [5] concerns Staphylococcus epidermidis RP62A/1.
Test [6] deals with Escherichia coli ATCC 25726.
The test system of test [7] is Pseudomonas aeruginosa ATCC 27853.
The subject of test [8] is Candida albicans ATCC 90028.
Test [9] has as its system Acinetobacter baumannii NM8.
The subject of test [10] is Klebsiella pneumoniae ATCC 700603.
Test [11] has as its system Stenotrophomonas maltophilia B32/4.
For test [12], the system named is Staphylococcus aureus ATCC 25923.
In test [13] the test system is Staphylococcus epidermidis RP62A.
For test [14], the system named is Pseudomonas aeruginosa ATCC 15692.

On to `CC[C@H](C)[C@H](NC(=O)CNC(=O)[C@H](CO)NC(=O)[C@H](CC(C)C)NC(=O)[C@@H](NC(=O)[C@H](CCCN=C(N)N)NC(=O)CNC(=O)[C@H](C)NC(=O)[C@H](CC(C)C)NC(=O)[C@@H]1CCCN1C(=O)[C@H](CC(C)C)NC(=O)[C@@H](N)Cc1ccccc1)C(C)C)C(=O)N[C@@H](CC(C)C)C(N)=O` [FLPLAGRVLSGIL], for which the MIC in test [1] is 20 µM (≈ 27.1 µg/mL); in test [2], not below 40 µM; with Bacillus megaterium Bm11, 20 µM (≈ 27.1 µg/mL); with Staphylococcus capitis 1 it was not below 40 µM; in test [3] it was not below 40 µM; in [4], more than 40 µM.
As for `CC[C@H](C)[C@H](N)C(=O)N[C@@H](CC(C)C)C(=O)NCC(=O)N[C@@H](CCCCN)C(=O)N[C@@H](CC(C)C)C(=O)N[C@@H](CC(C)C)C(=O)N[C@@H](CO)C(=O)N[C@H](C(=O)N[C@@H](C)C(=O)N[C@@H](C)C(=O)NCC(=O)N[C@@H](CC(C)C)C(=O)N[C@@H](CC(C)C)C(=O)N[C@@H](CO)C(=O)N[C@@H](CC(N)=O)C(=O)N[C@@H](CC(C)C)C(N)=O)[C@@H](C)O` [ILGKLLSTAAGLLSNL], the MIC is not below 32 µM in test [5]; not below 256 µM in [6]; 256 µM (≈ 405 µg/mL) in test [7]; not below 64 µM in [8]; not below 64 µM in [9]; 256 µM (≈ 405 µg/mL) in test [10]. Moreover, the MIC was not below 128 µM in test [11], 50 µM (≈ 79.1 µg/mL) in test [12], not below 64 µM in test [13] and 150 µM (≈ 237 µg/mL) in [4].
For the molecule `CC[C@H](C)[C@H](N)C(=O)N[C@@H](CC(C)C)C(=O)NCC(=O)N[C@@H](CCCCN)C(=O)N[C@@H](CC(C)C)C(=O)N[C@@H](CC(C)C)C(=O)N[C@@H](CO)C(=O)N[C@H](C(=O)N[C@@H](C)C(=O)N[C@@H](C)C(=O)NCC(=O)N[C@@H](CC(C)C)C(=O)N[C@@H](CC(C)C)C(=O)N[C@@H](CCCCN)C(=O)N[C@@H](CC(N)=O)C(=O)N[C@@H](CC(C)C)C(N)=O)[C@@H](C)O` [ILGKLLSTAAGLLKNL], the MIC in [5] was 8 µM (≈ 13 µg/mL); in [6], not below 32 µM; in test [7], 128 µM (≈ 208 µg/mL); in test [8], not below 32 µM; in [9], not below 32 µM; in test [10], 128 µM (≈ 208 µg/mL). Also, the MIC in [11] was not below 64 µM; in test [12] it was 16 µM (≈ 26 µg/mL); in test [13], 16 µM (≈ 26 µg/mL).
As for `CC[C@H](C)[C@H](NC(=O)[C@H](CC(C)C)NC(=O)[C@H](CCCCN)NC(=O)[C@H](CO)NC(=O)[C@H](C)NC(=O)CNC(=O)[C@H](CCCCN)NC(=O)[C@H](CC(C)C)NC(=O)[C@H](C)NC(=O)[C@H](C)NC(=O)[C@H](CCCCN)NC(=O)[C@H](C)NC(=O)[C@H](CC(C)C)NC(=O)[C@H](CC(C)C)NC(=O)CNC(=O)[C@H](Cc1ccccc1)NC(=O)[C@@H](NC(=O)CN)C(C)C)C(=O)N1CCC[C@H]1C(=O)N[C@@H](Cc1cnc[nH]1)C(=O)N[C@@H](CC(C)C)C(=O)N[C@@H](CC(C)C)C(=O)N1CCC[C@H]1C(=O)N[C@@H](CO)C(=O)N[C@@H](CCCN=C(N)N)C(=O)N[C@@H](CCC(N)=O)C(=O)N[C@@H](CCC(N)=O)C(=O)O` [GVFGLLAKAALKGASKLIPHLLPSRQQ], the MIC in test [14] is 5.66 µM (≈ 15.9 µg/mL); in the test with Micrococcus luteus, 0.5 µM (≈ 1.41 µg/mL); against Saccharomyces cerevisiae it was 16 µM (≈ 45 µg/mL); in test [12] it was 1 µM (≈ 2.81 µg/mL); in test [4] it was 1 µM (≈ 2.81 µg/mL).
In the case of `CC[C@H](C)[C@H](NC(=O)CNC(=O)[C@H](CO)NC(=O)[C@H](CC(C)C)NC(=O)[C@@H](NC(=O)[C@H](C)NC(=O)CNC(=O)[C@@H](NC(=O)[C@H](CC(C)C)NC(=O)[C@@H]1CCCN1C(=O)[C@H](CC(C)C)NC(=O)[C@@H](N)Cc1ccccc1)[C@@H](C)CC)C(C)C)C(=O)N[C@@H](CC(C)C)C(N)=O` [FLPLIGAVLSGIL], the MIC in [1] is more than 40 µM; in test [2], not below 40 µM; in the test with Bacillus megaterium Bm11 it was not below 40 µM; with Staphylococcus capitis 1, not below 40 µM; in test [3] it was not below 40 µM; in [4], more than 40 µM.

As usually defined, the MIC is the smallest concentration in the dilution series that meets the test's criterion for growth inhibition.
